Results: patent US20070238158A1, “Method for enhancing enzyme activity at elevated temperature” (The Institute of Physical and Chemical Research, priority 1996, published 2007)

What was measured:
Assay type in all cases: biochemical
[1] = biological target: T1, reverse transcriptase Superscript II (Moloney murine leukemia virus, UniProt P03355, D1183G/D1242N/E1221Q); assay: Reverse transcription activity of Superscript II at elevated temperature (cDNA synthesis from in vitro transcribed RNA, denaturing agarose electrophoresis, autoradiography); conditions: for electrophoretic pattern: full length cDNAs versus short products from prematurely terminated synthesis: reaction at 60° C., 20% of the substance and 20% glycerol in buffer (Lane 3 condition)
T1 construct: Superscript II is known as a reverse transcriptase (RNA-dependent DNA polymerase)
Experimental: To examine reverse transcription activity of Superscript II at an elevated temperature, cDNAs were synthesized using RNAs transcribed in vitro by T7 RNA polymerase as template and the products were evaluated. By using RNAs as a template transcribed in vitro and evaluating the products by electrophoresis, reverse transcription efficiencies of the samples can be compared with one another and thereby non-specific transcription termination which leads to premature termination of reverse transcription and/or reduction of reaction efficiency can be evaluated. The template RNAs were prepared by transcribing pBluescript II SK, which had been cleaved into a linear form with a restriction enzyme NotI, with T7 RNA polymerase in vitro. This reaction was initiated from T7 promoter described in the instruction of pBluescript II SK.
As a control, the following standard buffer condition was used: 50 mM Tris-HCl, pH 8.3, 75 mM KCl, 3 mM MgCl2, 10 mM dithiothreitol, each 0.75 mM of dNTPs (dATP, dGTP, dCTP and dTTP).
In the above standard buffer condition, 1 μg of template RNA, 400 ng of primer (20mer SK primer, […]) and 200 units of Superscript II were prepared and the final volume was adjusted to 20 μl. 0.2 μl of [α-^32P] dGTP was used for labeling of reverse transcription products. The RNA and the primer were incubated at 65° C. before the other substrates were added. Then, the reaction was performed at 42° C. for 1 hour. The reaction products were subjected to denatured agarose electrophoresis and electrophoretic patterns were examined by autoradiography to evaluate recoveries of full length cDNAs and rates of short products obtained from incomplete elongation. The results are shown in Lane 1 of FIG. 1.
The following buffer condition for reverse transcription was used to verify that addition of oligosaccharide stabilizes the enzyme reaction: 50 mM Tris-HCl, pH 8.3, 75 mM KCl, 3 mM MgCl2, 10 mM dithiothreitol, each 0.75 mM of dNTPs (dATP, dGTP, dCTP, dTTP), 20% (w/v) trehalose and 20% (v/v) glycerol.
1 μg of template RNA, 400 ng of primer (20 mer SK primer) and 200 units of Superscript II were reacted in 24 μl of aqueous solution under the above buffer condition. 0.2 μl of [α-^32P] dGTP was used for labeling of reverse transcription products. […] The primer and the template RNAs were annealed at 37° C. for 2 minutes and the enzyme activity was measured at 60° C.
The reaction products were subjected to denaturing agarose electrophoresis as described above, and electrophoretic patterns were examined by autoradiography to evaluate recoveries of full length cDNAs and rates of short products obtained from incomplete elongation.

restriction enzyme Sty I = assay: Sty I restriction enzyme digestion of λ DNA at 37-60° C. (agarose gel, image analysis of 1 kbp band); conditions: suitable concentration; betaine 0-0.6M or sarcosine 0-3.6M; 37, 45, 50, 55 or 60° C. for 1 hour
Experimental: Reaction solutions (20 μl each) containing a restriction enzyme, Sty I 0.5 units, its substrate, λ DNA 0.5 μg and betaine 0-0.6M or sarcosine 0-3.6M were incubated at 37, 45, 50, 55 or 60° C. for 1 hour. In order to prevent initiation of enzyme reaction before the incubation, the samples were quickly prepared on ice. Upon incubation, 0.25% bromophenol blue, 0.26% XC (xylene cyanol), 30% glycerol and 120 mM EDTA (4 μl) was added to the reaction solution to terminate the reaction. The resulting solution was heated at […] for 5 minutes to melt cos sites and subjected to electrophoresis using 0.8% agarose gel containing 0.05% EtBr.
After electrophoresis, image analysis of the gels was conducted. Enzyme activity was represented by comparing strength of bands appeared at 1 kbp (with arrow). Regarding the samples using betaine, the standard (100) is the band strength obtained from the sample using 0 M of betaine and incubated at 37° C. Regarding the samples using sarcosine, the standard (100) is the band strength obtained from the sample using 0 M of sarcosine and incubated at 37° C.

[2] = biological target: T1, reverse transcriptase Superscript II; assay: Reverse transcription activity of Superscript II at elevated temperature (cDNA synthesis from in vitro transcribed RNA, denaturing agarose electrophoresis, autoradiography)

Row | Molecule | electrophoretic pattern: full length cDNAs versus short products from prematurely terminated synthesis [1] | further results
1 | OC[C@H]1O[C@H](O[C@H]2[C@H](O)[C@@H](O)C(O)O[C@@H]2CO)[C@H](O)[C@@H](O)[C@@H]1O (mixture of isomers) [maltose] | the amount of products obtained from prematurely terminated synthesis became very small and full length products were synthesized | –
2 | OC[C@@H](O)C(O)[C@H](O)CO [arabitol] | the amount of products obtained from prematurely terminated synthesis became very small and full length products were synthesized | –
3 | C[N+](C)(C)CC(=O)O [betaine] | the amount of products obtained from prematurely terminated synthesis became very small and full length products were synthesized | thermal activation of restriction enzyme (relative activity of Sty I) (restriction enzyme Sty I): thermally activated
4 | O=C(CO)[C@@H](O)[C@H](O)[C@H](O)CO [levulose] | the amount of products obtained from prematurely terminated synthesis became very small and full length products were synthesized | –
5 | CNCC(=O)O [sarcosine] | – | thermal activation of restriction enzyme (relative activity of Sty I) (restriction enzyme Sty I): thermally activated
6 | OC[C@@H](O)[C@@H](O)[C@H](O)[C@@H](O)CO [sorbitol] | the amount of products obtained from prematurely terminated synthesis became very small and full length products were synthesized | –
7 | OC[C@H]1O[C@H](O[C@H]2O[C@H](CO)[C@@H](O)[C@H](O)[C@H]2O)[C@H](O)[C@@H](O)[C@@H]1O [trehalose] | the amount of products obtained from prematurely terminated synthesis became very small and full length products were synthesized | Superscript II activity compared with control reaction in standard buffer ([2]; normal temperature (42° C.), 20% (w/v) trehalose and 20% (v/v) glycerol): higher activity than the control reaction; electrophoretic pattern: products from premature termination of reverse transcription ([2]; reaction at 42° C., 20% trehalose and 20% glycerol (Lane 2)): products resulted from premature termination as mentioned above were also observed
8 | OC[C@@H](O)[C@H](O)[C@@H](O)CO [xylitol] | the amount of products obtained from prematurely terminated synthesis became very small and full length products were synthesized | –
9 | Triton X100 | – | amount of incomplete reverse transcription products when added to the Lane 3 condition ([1]; 60° C., 0.05% Triton X100 plus 20% trehalose and 20% glycerol (Lane 4)): further reduced; effect on enzyme activity when added to the Lane 3 condition ([1]; 60° C., additive plus 20% trehalose and 20% glycerol, BSA 0.125 μg/μl (Lane 5), Triton X100 0.05% (Lane 4)): the whole activity of the reverse transcriptase was slightly reduced
